Laboratory results as given in patent US11524966B1 (Valo Early Discovery, Inc., priority 2017, dated 2022).

target: T1, USP28 (USP28-5(1-1077)-TEV-6*His; LifeSensors) (Homo sapiens, UniProt Q96RU2); test: Ubiquitin-Rhodamine 110 Assay for USP28 Activity, Example A-1(b); format: biochemical; conditions: Ub-Rh110 assay, Example A-1(b)
T1 construct: construct USP28 (USP28-5(1-1077)-TEV-6*His; LifeSensors); TEV cleavage site (C); 6xHis (C); purchased LifeSensors
T1 sequence (Q96RU2 1-1077): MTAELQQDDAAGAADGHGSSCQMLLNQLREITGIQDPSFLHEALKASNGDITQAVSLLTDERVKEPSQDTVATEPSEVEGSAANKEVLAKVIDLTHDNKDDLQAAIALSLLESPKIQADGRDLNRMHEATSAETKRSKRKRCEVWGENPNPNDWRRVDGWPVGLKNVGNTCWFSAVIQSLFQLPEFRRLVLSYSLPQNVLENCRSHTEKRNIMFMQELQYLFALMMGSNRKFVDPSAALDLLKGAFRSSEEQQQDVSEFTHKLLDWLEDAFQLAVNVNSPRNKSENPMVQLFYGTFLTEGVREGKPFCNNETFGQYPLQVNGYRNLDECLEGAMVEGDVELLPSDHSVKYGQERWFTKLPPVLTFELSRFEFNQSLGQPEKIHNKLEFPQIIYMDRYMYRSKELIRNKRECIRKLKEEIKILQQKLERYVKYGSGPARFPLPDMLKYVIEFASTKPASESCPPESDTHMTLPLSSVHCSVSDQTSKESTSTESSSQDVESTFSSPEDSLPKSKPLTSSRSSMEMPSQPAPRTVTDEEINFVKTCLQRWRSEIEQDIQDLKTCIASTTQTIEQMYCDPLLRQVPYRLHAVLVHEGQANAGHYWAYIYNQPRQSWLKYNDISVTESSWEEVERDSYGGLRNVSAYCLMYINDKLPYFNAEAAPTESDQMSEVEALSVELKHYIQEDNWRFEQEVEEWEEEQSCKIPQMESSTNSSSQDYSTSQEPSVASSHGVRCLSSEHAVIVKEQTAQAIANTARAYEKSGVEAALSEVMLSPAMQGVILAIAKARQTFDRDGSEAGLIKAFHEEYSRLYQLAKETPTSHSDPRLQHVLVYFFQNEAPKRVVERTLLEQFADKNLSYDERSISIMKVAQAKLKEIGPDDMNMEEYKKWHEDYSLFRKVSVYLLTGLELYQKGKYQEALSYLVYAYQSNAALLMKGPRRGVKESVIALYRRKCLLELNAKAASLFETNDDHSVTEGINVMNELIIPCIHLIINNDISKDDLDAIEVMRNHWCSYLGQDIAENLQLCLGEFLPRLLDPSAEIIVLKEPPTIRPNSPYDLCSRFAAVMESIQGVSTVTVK
Procedure, shortened: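 Single-point screening used 10 μM compound with 90 min room-temperature incubation; follow-up dose-responses (25 μM top, 3-fold) used 75 pM USP28 1-1077 construct, 30 min compound preincubation, 25 nM Ub-Rh110, 20 min reaction, citric acid quench. Rh110 fluorescence normalised to no-enzyme and DMSO controls; IC50 from 4-parameter logistic fit.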

Structure (SMILES) | USP28 A-1(b) IC50 range
Cc1ccc2c(N)c(C(=O)N[C@@H]3COc4cc(N5CC6CC(C5)N6)ccc4C3)sc2n1 [Example 2-3, N-((3S)-7-(3,6-diazabicyclo[3.1.1]heptan-3-yl)chroman-3-yl)-3-amino-6-methylthieno[2,3-b]pyridine-2-carboxamide] | + (>2 μM)
Cc1ccc2c(N)c(C(=O)N[C@H]3COc4cc(N5CC6CCC(C5)N6)ccc4C3)sc2n1 (single isomer, unassigned) [Example 1-3] | +++ (0.05-0.2 μM)
Cc1ccc2c(N)c(C(=O)N[C@H]3COc4cc(N5CC6CC(C5)N6)ccc4C3)sc2n1 [Example 2-2, N-((3R)-7-(3,6-diazabicyclo[3.1.1]heptan-3-yl)chroman-3-yl)-3-amino-6-methylthieno[2,3-b]pyridine-2-carboxamide] | +++ (0.05-0.2 μM)
Cc1ccc2c(N)c(C(=O)N[C@H]3COc4cc(N5CCNC[C@H]5C)ccc4C3)sc2n1 [Example 2-5, 3-amino-6-methyl-N-((R)-7-((R)-2-methylpiperazin-1-yl)chroman-3-yl)thieno[2,3-b]pyridine-2-carboxamide] | ++++ (0.001-0.05 μM)
Cc1ccc2c(N)c(C(=O)N[C@H]3COc4cc(N5CC6CC(C5)N6)cc(F)c4C3)sc2n1 (single isomer, unassigned) [Example 1-42] | + (>2 μM)
Cc1ccc2c(N)c(C(=O)N[C@H]3COc4cc(N5CC6CNCC(C5)C6(F)F)c(C#N)cc4C3)sc2n1 [Example 2-33, 3-amino-N-((3R)-6-cyano-7-(9,9-difluoro-3,7-diazabicyclo[3.3.1]nonan-3-yl)chroman-3-yl)-6-methylthieno[2,3-b]pyridine-2-carboxamide] | ++++ (0.001-0.05 μM)
Cc1nc2sc(C(=O)N[C@H]3COc4cc(N5CCNCC5)ccc4C3)c(N)c2cc1F (single isomer, unassigned) [Example 1-15] | +++ (0.05-0.2 μM)
Cc1ccc2c(N)c(C(=O)N[C@@H]3COc4cc(N5CCN[C@@H](C)[C@@H]5C)ccc4C3)sc2n1 (single isomer, unassigned) [Example 1-14] | ++ (0.2-2 μM)
Cc1ccc2c(N)c(C(=O)N[C@H]3COc4cc(N5CCN[C@H](C)C5)ccc4C3)sc2n1 [Example 2-9, 3-amino-6-methyl-N-((R)-7-((R)-3-methylpiperazin-1-yl)chroman-3-yl)thieno[2,3-b]pyridine-2-carboxamide] | ++ (0.2-2 μM)
CCn1ccc2cc(C(=O)N[C@H]3COc4cc(N5CC6CCCC(C5)N6)ccc4C3)nnc21 [Example 2-29, N-((3R)-7-(3,9-diazabicyclo[3.3.1]nonan-3-yl)chroman-3-yl)-7-ethyl-7H-pyrrolo[2,3-c]pyridazine-3-carboxamide] | ++ (0.2-2 μM)
Cc1cnc2c(N)c(C(=O)N[C@@H]3CCc4c(ccc(N5CCNCC5)c4C)C3)sc2n1 (single isomer, unassigned) [Example 2-37] | +++ (0.05-0.2 μM)
Cc1nc2sc(C(=O)N[C@H]3COc4cc(N5CC6CC(C5)N6)ccc4C3)c(N)c2s1 [Example 2-26, N-((3R)-7-(3,6-diazabicyclo[3.1.1]heptan-3-yl)chroman-3-yl)-6-amino-2-methylthieno[2,3-d]thiazole-5-carboxamide] | ++ (0.2-2 μM)
CCn1ccc2cc(C(=O)N[C@H]3COc4cc(N5CC6CCC(C5)N6)ccc4C3)cnc21 (single isomer, unassigned) [Example 1-28] | +++ (0.05-0.2 μM)
Cc1nc2sc(C(=O)N[C@H]3COc4cc(N5CC6CCC(C5)N6)ccc4C3)c(N)c2s1 [Example 1-23, N-((3R)-7-(3,8-diazabicyclo[3.2.1]octan-3-yl)chroman-3-yl)-6-amino-2-methylthieno[2,3-d]thiazole-5-carboxamide] | ++ (0.2-2 μM)
Cc1ccc2c(N)c(C(=O)N[C@H]3COc4cc(N5CC6CCCC(C5)N6)ccc4C3)sc2n1 (single isomer, unassigned) [Example 1-5] | ++++ (0.001-0.05 μM)
Cc1cnc2c(N)c(C(=O)N[C@H]3COc4cc(N5CCNCC5)ccc4C3)sc2n1 (single isomer, unassigned) [Example 1-21] | ++ (0.2-2 μM)
CCn1ccc2cc(C(=O)N[C@H]3COc4cc(N5CC6CNCC(C5)C6(F)F)ccc4C3)cnc21 [Example 2-30, N-((3R)-7-(9,9-difluoro-3,7-diazabicyclo[3.3.1]nonan-3-yl)chroman-3-yl)-1-ethyl-1H-pyrrolo[2,3-b]pyridine-5-carboxamide] | ++++ (0.001-0.05 μM)
Cc1ccc2c(N)c(C(=O)N[C@@H]3COc4cc(N5CCNCC5)c(OC(F)(F)F)cc4C3)sc2n1 (single isomer, unassigned) [Example 1-32] | ++ (0.2-2 μM)
Cc1cnc2c(N)c(C(=O)N[C@@H]3COc4cc(N5CCNCC5)ccc4C3)sc2n1 (single isomer, unassigned) [Example 1-22] | + (>2 μM)
